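Method: 48-hour compound exposure of cells in 96-well plates, five concentrations, linear interpolation of endpoints. Abbreviation: GI50, concentration required for 50% inhibition of growth. The concentration for full growth arrest is given as TGI.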
Key:
Experiment in all cases: DTP human tumour cell line panel, 48 h
HS 578T breast = tested on: HS 578T breast
K-562 leukemia = tested on: K-562 leukemia
OVCAR-3 ovarian = tested on: OVCAR-3 ovarian
UACC-257 melanoma = tested on: UACC-257 melanoma
NCI-H23 lung = tested on: NCI-H23 lung
SW-620 colon = tested on: SW-620 colon
MALME-3M melanoma = tested on: MALME-3M melanoma
COLO 205 colon = tested on: COLO 205 colon
MDA-MB-435 = tested on: MDA-MB-435
CCRF-CEM leukemia = tested on: CCRF-CEM leukemia
A498 renal = tested on: A498 renal
RPMI-8226 leukemia = tested on: RPMI-8226 leukemia
M14 melanoma = tested on: M14 melanoma
UACC-62 melanoma = tested on: UACC-62 melanoma
HCT-116 colon = tested on: HCT-116 colon
MDA-MB-231 breast = tested on: MDA-MB-231 breast
MOLT-4 leukemia = tested on: MOLT-4 leukemia
OVCAR-8 ovarian = tested on: OVCAR-8 ovarian
OVCAR-5 ovarian = tested on: OVCAR-5 ovarian
SK-MEL-2 melanoma = tested on: SK-MEL-2 melanoma
SR leukemia = tested on: SR leukemia
SF-268 CNS = tested on: SF-268 CNS
T-47D breast = tested on: T-47D breast
HT29 colon = tested on: HT29 colon
HOP-92 NSCLC = tested on: HOP-92 NSCLC
U251 CNS = tested on: U251 CNS
LOX IMVI melanoma = tested on: LOX IMVI melanoma
NCI-H522 lung = tested on: NCI-H522 lung
EKVX NSCLC = tested on: EKVX NSCLC
PC-3 prostate = tested on: PC-3 prostate
NCI/ADR-RES ovarian = tested on: NCI/ADR-RES ovarian
SK-MEL-28 melanoma = tested on: SK-MEL-28 melanoma
UO-31 renal = tested on: UO-31 renal
SNB-19 CNS = tested on: SNB-19 CNS
786-0 renal = tested on: 786-0 renal
DU-145 prostate = tested on: DU-145 prostate
HOP-62 NSCLC = tested on: HOP-62 NSCLC
SF-295 CNS = tested on: SF-295 CNS
MCF7 breast = tested on: MCF7 breast
NCI-H460 lung = tested on: NCI-H460 lung
TK-10 renal = tested on: TK-10 renal
OVCAR-4 ovarian = tested on: OVCAR-4 ovarian
BT-549 breast = tested on: BT-549 breast
A549 NSCLC = tested on: A549 NSCLC
HCC-2998 colon = tested on: HCC-2998 colon
ACHN renal = tested on: ACHN renal
SN12C renal = tested on: SN12C renal
SK-OV-3 ovarian = tested on: SK-OV-3 ovarian
IGROV1 ovarian = tested on: IGROV1 ovarian
RXF 393 renal = tested on: RXF 393 renal
NCI-H226 lung = tested on: NCI-H226 lung
KM12 colon = tested on: KM12 colon
HCT-15 colon = tested on: HCT-15 colon
SK-MEL-5 melanoma = tested on: SK-MEL-5 melanoma
SF-539 CNS = tested on: SF-539 CNS
SNB-75 CNS = tested on: SNB-75 CNS
HL-60(TB) leukemia = tested on: HL-60(TB) leukemia

## C=CC[n+]1c(/C=C/C=C2\N(C)c3ccccc3C2(C)C)sc2ccc(OC)cc21
HS 578T breast
  GI50: 0.465 µM
  TGI: 25.4 µM
K-562 leukemia
  GI50: 0.165 µM
  TGI: 12.8 µM
OVCAR-3 ovarian
  GI50: 0.176 µM
  TGI: 22.2 µM
UACC-257 melanoma
  GI50: 0.197 µM
  TGI: 0.733 µM
NCI-H23 lung
  GI50: 0.0761 µM
  TGI: 12.9 µM
SW-620 colon
  GI50: 0.34 µM
  TGI: 14.3 µM
MALME-3M melanoma
  GI50: 0.188 µM
  TGI: 0.733 µM
COLO 205 colon
  GI50: 0.188 µM
  TGI: 0.591 µM
MDA-MB-435
  GI50: 0.256 µM
  TGI: 10.6 µM
CCRF-CEM leukemia
  GI50: 0.287 µM
  TGI: 12.7 µM
A498 renal
  GI50: 0.278 µM
  TGI: 4.37 µM
RPMI-8226 leukemia
  GI50: 0.0692 µM
  TGI: 0.705 µM
M14 melanoma
  GI50: 0.331 µM
  TGI: 2.59 µM
UACC-62 melanoma
  GI50: 0.195 µM
  TGI: 2.65 µM
HCT-116 colon
  GI50: 0.159 µM
  TGI: 11.9 µM
MDA-MB-231 breast
  GI50: 0.272 µM
  TGI: 1.65 µM
MOLT-4 leukemia
  GI50: 0.309 µM
  TGI: 5.73 µM
OVCAR-8 ovarian
  GI50: 0.327 µM
  TGI: 33.8 µM
OVCAR-5 ovarian
  GI50: 0.504 µM
  TGI: 14.9 µM
SK-MEL-2 melanoma
  GI50: 0.27 µM
  TGI: 5.22 µM
SR leukemia
  GI50: 0.101 µM
  TGI: 7.12 µM
SF-268 CNS
  GI50: 0.321 µM
  TGI: 19.6 µM
T-47D breast
  GI50: 0.0231 µM
  TGI: 0.561 µM
HT29 colon
  GI50: 0.272 µM
  TGI: 6.05 µM
HOP-92 NSCLC
  GI50: 0.201 µM
  TGI: 1.61 µM
U251 CNS
  GI50: 0.293 µM
  TGI: 14.4 µM
LOX IMVI melanoma
  GI50: 0.313 µM
  TGI: 15.1 µM
NCI-H522 lung
  GI50: 0.133 µM
  TGI: 2.6 µM
EKVX NSCLC
  GI50: 0.264 µM
  TGI: 15.5 µM
PC-3 prostate
  GI50: 0.215 µM
  TGI: 12.2 µM
NCI/ADR-RES ovarian
  GI50: 7.76 µM
  TGI: 69.2 µM
SK-MEL-28 melanoma
  GI50: 0.464 µM
  TGI: 4.79 µM
UO-31 renal
  GI50: 1.53 µM
  TGI: 8.82 µM
SNB-19 CNS
  GI50: 0.289 µM
  TGI: 14.4 µM
786-0 renal
  GI50: 0.363 µM
  TGI: 18.8 µM
DU-145 prostate
  GI50: 0.34 µM
  TGI: 15.6 µM
HOP-62 NSCLC
  GI50: 0.291 µM
  TGI: 11.9 µM
SF-295 CNS
  GI50: 0.18 µM
  TGI: 3 µM
MCF7 breast
  GI50: 0.157 µM
  TGI: 11.4 µM
NCI-H460 lung
  GI50: 0.199 µM
  TGI: 12.1 µM
TK-10 renal
  GI50: 0.235 µM
  TGI: 14.8 µM
OVCAR-4 ovarian
  GI50: 0.114 µM
  TGI: 28.5 µM
BT-549 breast
  GI50: 0.149 µM
  TGI: 2.99 µM
A549 NSCLC
  GI50: 0.279 µM
  TGI: 16.1 µM
HCC-2998 colon
  GI50: 0.258 µM
  TGI: 21.3 µM
ACHN renal
  GI50: 1.65 µM
  TGI: 10.9 µM
SN12C renal
  GI50: 0.283 µM
  TGI: 11.8 µM
SK-OV-3 ovarian
  GI50: 0.21 µM
  TGI: 0.769 µM
IGROV1 ovarian
  GI50: 0.521 µM
  TGI: 21.6 µM
RXF 393 renal
  GI50: 0.431 µM
  TGI: 13.7 µM
NCI-H226 lung
  GI50: 0.282 µM
  TGI: 13 µM
KM12 colon
  GI50: 0.249 µM
  TGI: 11.7 µM
HCT-15 colon
  GI50: 2.82 µM
  TGI: 16.4 µM
SK-MEL-5 melanoma
  GI50: 0.0615 µM
  TGI: 0.239 µM
SF-539 CNS
  GI50: 0.329 µM
  TGI: 13.9 µM
SNB-75 CNS
  GI50: 0.283 µM
  TGI: 14.1 µM
HL-60(TB) leukemia
  GI50: 0.156 µM
  TGI: 0.732 µM
